For one assay, the target named is T1, 15-LOX (Glycine max, UniProt P08170).
T1 construct: purchased Cayman Chemical 760,700
T1 sequence (P08170 1-839): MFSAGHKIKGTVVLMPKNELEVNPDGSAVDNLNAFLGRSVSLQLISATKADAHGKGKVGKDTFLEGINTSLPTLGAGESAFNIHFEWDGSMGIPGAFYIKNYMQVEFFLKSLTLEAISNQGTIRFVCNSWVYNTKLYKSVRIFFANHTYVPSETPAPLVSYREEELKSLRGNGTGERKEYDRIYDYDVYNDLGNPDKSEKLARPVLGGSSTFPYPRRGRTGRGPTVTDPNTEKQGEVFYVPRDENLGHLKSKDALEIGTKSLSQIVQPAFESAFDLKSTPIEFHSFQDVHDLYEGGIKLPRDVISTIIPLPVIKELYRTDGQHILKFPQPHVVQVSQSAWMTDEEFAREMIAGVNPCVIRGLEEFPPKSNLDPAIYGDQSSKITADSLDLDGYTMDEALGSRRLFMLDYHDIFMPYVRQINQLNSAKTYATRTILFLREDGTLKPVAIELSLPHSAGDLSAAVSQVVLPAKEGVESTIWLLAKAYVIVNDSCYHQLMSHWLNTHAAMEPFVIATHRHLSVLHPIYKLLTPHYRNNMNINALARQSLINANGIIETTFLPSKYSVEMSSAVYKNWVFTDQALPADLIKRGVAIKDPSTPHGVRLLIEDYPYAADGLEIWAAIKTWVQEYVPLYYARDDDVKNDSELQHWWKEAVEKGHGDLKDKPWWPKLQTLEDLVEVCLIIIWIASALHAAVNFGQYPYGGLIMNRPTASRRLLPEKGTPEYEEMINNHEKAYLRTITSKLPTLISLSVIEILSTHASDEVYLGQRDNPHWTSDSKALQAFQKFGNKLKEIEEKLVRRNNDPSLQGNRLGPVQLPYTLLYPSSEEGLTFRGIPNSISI
Description: In vitro 15-LOX inhibition (Lipoxygenase Inhibitor Screening assay Kit 760700, Cayman). The following applies: mean of six values ± standard deviation. It is filed as biochemical. As to the method: 15-LOX inhibitor screening protocol: Blank wells: 100 µl of assay buffer was added to at least two wells, Positive control wells: 90 µl of 15-LOX standard was added to 10 µl of assay buffer to at least two wells, 100% initial activity wells: 90 µl of Lipoxygenase enzyme was added to 10 µl of solvent to at least two wells, Inhibitor wells: 90 µl of Lipoxygenase enzyme was added to 10 µl of inhibitor wells to. It was incubated for five minutes at room temperature. The reaction was initiated by adding 10 µl of substrate to all the wells. 96well-plates were placed on a shaker for at least 10 min. 100 µl of chromogen was added to each well to stop the enzyme catalysis. The reaction was covered with plate cover. 96well-plates were placed on a shaker for at least 5 min. The cover was removed and absorbance was read using plate reader at absorbance 490–500 nm.

A further assay relates to PGE2. Description: PGE2 production in LPS-activated RAW 264.7 macrophages (ELISA). To be noted: Mus musculus, RAW264.7, read-out: PGE2 IC50.

In general, IC50 refers to the point on the concentration scale where inhibition reaches its midpoint.

`CCOC(=O)COc1ccc(C2=NN(c3ccc(S(C)(=O)=O)cc3)C(c3ccc(Br)cc3)C2)cc1` (stereo not drawn) [Compound 15 h, Ethyl 2-(4-(5-(4-bromophenyl)-1-(4-(methylsulfonyl)phenyl)-4,5-dihydro-1H-pyrazol-3-yl)phenoxy)acetate]: the half-inhibitory concentration (IC50) turned out to be 488 ± 19 nM against 15-LOX and 280 ± 32 nM in the assay with PGE2.

For `CCOC(=O)COc1ccc(C2=NN(c3ccc(S(C)(=O)=O)cc3)C(c3ccc(OC)cc3)C2)cc1` (stereo not drawn) [Compound 15c, Ethyl 2-(4-(5-(4-methoxyphenyl)-1-(4-(methylsulfonyl)phenyl)-4,5-dihydro-1H-pyrazol-3-yl)phenoxy)acetate], the IC50 against 15-LOX worked out at 412 ± 16 nM; in the assay on PGE2, 520 ± 29 nM.

On to `CCOC(=O)COc1ccc(C2=NN(c3ccc(S(C)(=O)=O)cc3)C(c3cc(OC)c(OC)c(OC)c3)C2)cc1` (stereo not drawn) [Compound 15d, Ethyl 2-(4-(1-(4-(methylsulfonyl)phenyl)-5-(3,4,5-trimethoxyphenyl)-4,5-dihydro-1H-pyrazol-3-yl)phenoxy)acetate], for which the IC50 against 15-LOX stood at 2230 ± 87 nM; in the assay with PGE2, 330 ± 21 nM.

The values are drawn from PMC12926254, “Novel pyrazole carboxylate derivatives as lonazolac bioisosteres with selective COX-2 inhibition: design, synthesis and anti-inflammatory activity” (Molecular Diversity, 2025).
